Common to all, as to test: combination Emax (second highest fraction inhibited in the dose matrix, 72 h); higher = more inhibition; extreme values may be limits of the assay
The subject of one assay is 8-MG-BA (Glioblastoma). The essentials:
(§1)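 Bliss excess equals the observed combination effect minus the expected value EA + EB − EA·EB, where EA and EB are the effects of each agent alone. Combination Emax is the second-highest inhibition within the matrix. Inhibition was scaled from CellTiter-Glo 2.0 luminescence, with 0 set by vehicle wells and 1 by blank wells, after 72 hours of two-drug dosing of cells plated in 1536-well plates.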

The test system of assay [1] is A3-KAW (B-Cell Non-Hodgkin's Lymphoma). The essentials:
as §1

A further assay has as its system A498 (Kidney Carcinoma). The essentials: as §1
In assay [2] the test system is BICR22 (Oral Cavity Carcinoma). In a few lines:
as §1

Assay [3] relates to CAL-29 (Bladder Carcinoma). The essentials:
as §1

Another assay has as its system CAS-1 (Glioblastoma). In a few lines:
as §1

For assay [4], the system named is COLO-320-HSR (Colorectal Carcinoma). The essentials:
as §1

Assay [5] deals with COR-L311 (Small Cell Lung Carcinoma). The essentials: as §1
The subject of assay [6] is HCC1954 (Breast Carcinoma). In a few lines:
as §1

In the next assay the test system is IGR-37 (Melanoma). In a few lines:
as §1

In assay [7] the test system is JSC-1 (B-Cell Non-Hodgkin's Lymphoma). In a few lines: as §1
Assay [8] deals with KARPAS-422 (B-Cell Non-Hodgkin's Lymphoma). In a few lines:
as §1

For assay [9], the system named is NCI-H1581 (Non-Small Cell Lung Carcinoma). In a few lines:
as §1

In assay [10] the test system is NCI-H1650 (Lung Adenocarcinoma). The essentials: as §1
Assay [11] relates to NCI-H1666 (Lung Adenocarcinoma). The essentials:
as §1

Assay [12] concerns NCI-H2066 (Squamous Cell Lung Carcinoma). In a few lines: as §1
Assay [13] concerns ONS-76 (Other Solid Carcinomas). The essentials: as §1
Another assay concerns PA-1 (Ovarian Carcinoma). In a few lines:
as §1

Assay [14] deals with SISO (Cervical Carcinoma). In a few lines: as §1
Assay [15] has as its system TT (Thyroid Gland Carcinoma). The essentials:
as §1

`Cc1nc(Nc2ncc(C(=O)Nc3c(C)cccc3Cl)s2)cc(N2CCN(CCO)CC2)n1` [Dasatinib] + CC(=O)Nc1cccc(-n2c(=O)n(C3CC3)c(=O)c3c(Nc4ccc(I)cc4F)n(C)c(=O)c(C)c32)c1 [Trametinib] (first compound max 2 µM, 7x7, partner max 1 µM): the “combination Emax” value in the assay with 8-MG-BA (Glioblastoma) worked out at 0.756; in [1] it was 0.464; in the assay with A498 (Kidney Carcinoma), 0.503; in assay [2] it was 0.615; in [3], 0.625; in the assay with CAS-1 (Glioblastoma), 0.946. The “combination Emax” value in assay [4] came to 0.15; in assay [5], 0.0652; in assay [6], 0.279; with IGR-37 (Melanoma), 0.838; in assay [7], 0.543; in assay [8] it was 0.469. Besides, the “combination Emax” value in assay [9] is 0.552; in assay [10] it was 0.419; in assay [11], 0.651; in [12], 0.402; in assay [13], 0.888; in the assay with PA-1 (Ovarian Carcinoma), 0.936. In addition, the “combination Emax” value in assay [14] was 0.157; in assay [15] it was 0.441.
Regarding `COc1cccc2c1C(=O)c1c(O)c3c(c(O)c1C2=O)C[C@@](O)(C(=O)CO)C[C@@H]3O[C@H]1C[C@H](N)[C@H](O)[C@H](C)O1` [Doxorubicin] + Cc1cc2ncnn2cc1Nc1ncc2c(n1)n(C1CCOCC1)c(=O)n2C [AZD7648] (first compound max 1 µM, 7x7, partner max 10 µM), the “combination Emax” value in the assay on 8-MG-BA (Glioblastoma) turned out to be 0.938; in assay [1], 0.984; in the assay with A498 (Kidney Carcinoma) it was 0.598; in assay [2], 0.945; in assay [3], 0.735; in the assay on CAS-1 (Glioblastoma), 0.775. In addition, the “combination Emax” value turned out to be 0.464 in assay [4]; 0.87 in [5]; 0.729 in [6]; 0.777 with IGR-37 (Melanoma); 0.97 in assay [7]; 0.954 in assay [8]. In addition, the “combination Emax” value in assay [9] stood at 0.866; in [10], 0.591; in assay [11], 0.825; in [12] it was 0.262; in [13], 0.935; in the assay with PA-1 (Ovarian Carcinoma), 0.892. For the same compound, the “combination Emax” value in [14] is 0.909; in [15], 0.604.
`COc1cc2ncnc(Nc3ccc(F)c(Cl)c3)c2cc1OCCCN1CCOCC1` [Gefitinib] + CC(C)n1c(=O)n(C)c2cnc3cc(F)c(-c4ccc(OCCCN5CCCCC5)nc4)cc3c21 [AZD1390] (first compound max 10 µM, 7x7, partner max 0.3 µM): the “combination Emax” value in the assay with 8-MG-BA (Glioblastoma) worked out at 0.268; in assay [1], 0.605; with A498 (Kidney Carcinoma), 0.298; in assay [2], 0.272; in assay [3], 0.228; in the assay with CAS-1 (Glioblastoma), 0.134. In addition, the “combination Emax” value was 0.19 in assay [4]; 0.0812 in assay [5]; 0.267 in assay [6]; 0.252 in the assay with IGR-37 (Melanoma); 0.249 in assay [7]; 0.128 in assay [8]. Besides, the “combination Emax” value in [9] was 0.0926; in [10], 0.236; in assay [11], 0.484; in [12], 0.384; in assay [13], 0.11; with PA-1 (Ovarian Carcinoma), 0.351. The entries for the “combination Emax” value in assay [14] and in [15] were 0.0311 and 0.118, respectively.
As to `CS(=O)(=O)CCNCc1ccc(-c2ccc3ncnc(Nc4ccc(OCc5cccc(F)c5)c(Cl)c4)c3c2)o1` [Lapatinib] + C[C@@H](Oc1cc(-c2cnn(C3CCNCC3)c2)cnc1N)c1c(Cl)ccc(F)c1Cl [Crizotinib] (first compound max 10 µM, 7x7, partner max 10 µM), the “combination Emax” value in the assay with 8-MG-BA (Glioblastoma) was 0.998; in assay [1], 0.968; in the assay on A498 (Kidney Carcinoma) it was 0.926; in assay [2] it was 0.933; in assay [3], 0.952; in the assay on CAS-1 (Glioblastoma), 0.962. Moreover, the “combination Emax” value came out at 0.894 in assay [4]; 0.924 in [5]; 0.91 in assay [6]; 0.906 in the assay with IGR-37 (Melanoma); 0.925 in assay [7]; 0.96 in assay [8]. The “combination Emax” value in [9] was found to be 0.678; in assay [10], 0.799; in [11], 0.833; in assay [12], 0.58; in assay [13], 0.73; in the assay on PA-1 (Ovarian Carcinoma) it was 1. The “combination Emax” value in assay [14] amounted to 0.626; in [15], 0.409.
Turning to `CC(=O)c1c(C)c2cnc(Nc3ccc(N4CCNCC4)cn3)nc2n(C2CCCC2)c1=O` [Palbociclib] + CC1(C)CCC(CN2CCN(c3ccc(C(=O)NS(=O)(=O)c4ccc(NCC5CCOCC5)c([N+](=O)[O-])c4)c(Oc4cnc5[nH]ccc5c4)c3)CC2)=C(c2ccc(Cl)cc2)C1 [Venetoclax] (first compound max 10 µM, 7x7, partner max 1 µM), the “combination Emax” value is 0.366 in the assay on 8-MG-BA (Glioblastoma); 0.826 in assay [1]; 0.318 in the assay on A498 (Kidney Carcinoma); 0.209 in assay [2]; 0.0999 in assay [3]; 0.274 with CAS-1 (Glioblastoma). Also, the “combination Emax” value in assay [4] was determined as 0.15; in assay [5], 0.632; in [6] it was 0; with IGR-37 (Melanoma), 0.215; in assay [7], 0.506; in [8], 0.964. For the same compound, the “combination Emax” value in [9] came out at 0.291; in [10] it was 0.131; in assay [11] it was 0.177; in assay [12] it was 0.184; in [13], 0.364; in the assay with PA-1 (Ovarian Carcinoma), 0.779. Also, the “combination Emax” value in assay [14] amounted to 0.0637; in [15], 0.295.
As for `CC(=O)c1c(C)c2cnc(Nc3ccc(N4CCNCC4)cn3)nc2n(C2CCCC2)c1=O` [Palbociclib] + Cc1c2c(nn1C)CSCc1cc(n(C)n1)CSc1cc(c3ccccc3c1)OCCCc1c(C(=O)O)n(C)c3c-2c(Cl)ccc13 [AZD5991] (first compound max 10 µM, 7x7, partner max 1 µM), the “combination Emax” value in the assay on 8-MG-BA (Glioblastoma) is 0.63; in assay [1], 1; with A498 (Kidney Carcinoma), 0.406; in assay [2] it was 0.176; in assay [3], 0.175; in the assay on CAS-1 (Glioblastoma) it was 0.32. For the same compound, the “combination Emax” value in assay [4] is 0.965; in assay [5], 0.534; in assay [6] it was 0.712; in the assay on IGR-37 (Melanoma) it was 0.325; in [7], 1; in [8], 0.966. The “combination Emax” value in assay [9] came to 0.951; in [10], 0.195; in assay [11] it was 0.236; in assay [12], 0.198; in [13], 0.357; in the assay with PA-1 (Ovarian Carcinoma), 0.872. Besides, the figures for the “combination Emax” value in assay [14] and in assay [15] were 0.127 and 0.419, respectively.
With `CC(=O)c1c(C)c2cnc(Nc3ccc(N4CCNCC4)cn3)nc2n(C2CCCC2)c1=O` [Palbociclib] + Cn1cnc2c(F)c(Nc3ccc(Br)cc3Cl)c(C(=O)NOCCO)cc21 [Selumetinib] (first compound max 10 µM, 7x7, partner max 10 µM), the “combination Emax” value turned out to be 0.321 with 8-MG-BA (Glioblastoma); 0.869 in [1]; 0.372 with A498 (Kidney Carcinoma); 0.477 in [2]; 0.301 in [3]; 0.289 with CAS-1 (Glioblastoma). Moreover, the “combination Emax” value in [4] is 0.177; in assay [5] it was 0.231; in [6], 0.178; with IGR-37 (Melanoma) it was 0.872; in assay [7], 0.633; in assay [8], 0.81. Also, the “combination Emax” value in assay [9] worked out at 0.536; in assay [10] it was 0.15; in assay [11] it was 0.49; in assay [12] it was 0.244; in assay [13], 0.734; in the assay with PA-1 (Ovarian Carcinoma), 0.827. The results for the “combination Emax” value in assay [14] and in assay [15] were 0.17 and 0.349, respectively.

These data come from the supplement of paper PMC11061612.
